This is an account of results in the Deep4Chem optical property database.

This data set in a line: solvent given as SMILES.

For `COc1ccc(C#Cc2nc3ccccc3nc2-c2cn(C)c3ccccc23)cc1`, the absorption maximum reads like this: (in C1CCOC1) 408 nm; (in CC#N) 407 nm; (in CC(C)=O) 408 nm; (in CC(C)O) 415 nm; (in CCO) 415 nm; (in CCOC(C)=O) 405 nm. Moreover, the absorption maximum by setting is: (in CO) 415 nm; (in Cc1ccccc1) 407 nm; (in ClCCl) 408 nm.

As to `Oc1ccccc1/N=C/c1ccccc1Oc1ccccc1`, the absorption maximum runs as follows: (in C1CCCCC1) 353 nm; (in C1CCOC1) 355 nm; (in C1COCCO1) 367 nm; (in CC#N) 349 nm; (in CC(C)=O) 366 nm; (in CC(C)CO) 352 nm. Further, the absorption maximum stood at 352 nm (in CC(C)O); 355 nm (in CCCCC); 367 nm (in CCCCCC); 355 nm (in CCCCCCCCO); 354 nm (in CCCCCCCO); 355 nm (in CCCCCCO). Besides, the absorption maximum is, setting by setting: (in CCCCO) 353 nm; (in CCCCOC(C)=O) 367 nm; (in CCCO) 351 nm; (in CCO) 350 nm; (in CCOCC) 363 nm; (in CN(C)C=O) 349 nm. Besides, the absorption maximum is, setting by setting: (in CO) 348 nm; (in CS(C)=O) 373 nm; (in Cc1ccccc1) 381 nm; (in Cc1ccccc1C) 359 nm; (in ClC(Cl)Cl) 356 nm; (in ClCCl) 356 nm. The absorption maximum reads like this: (in N#Cc1ccccc1) 357 nm; (in OCCO) 349 nm; (in c1ccccc1) 366 nm.

`COC(=O)/C(C#N)=c1\s/c(=c2/s/c(=C(/C#N)C(=O)OC)c3cc(-c4ccc5c(c4)C(C)(C)c4ccccc4-5)sc23)c2sc(-c3ccc4c(c3)C(C)(C)c3ccccc3-4)cc12` gave an absorption maximum (in Cc1ccccc1) of 630 nm.

As for `Cc1ccc(C(=O)/C=C/c2ccc(N(C)C)cc2)cc1`, the absorption maximum amounted to 404 nm (in C1CCOC1); 411 nm (in CC#N); 427 nm (in CC(=O)O); 405 nm (in CC(C)=O); 422 nm (in CCO); 419 nm (in CN(C)C=O). Moreover, the absorption maximum is, setting by setting: (in CO) 419 nm; (in Cc1ccccc1) 404 nm; (in ClC(Cl)Cl) 412 nm; (in c1ccccc1) 404 nm.

`CCCCCCCCCCCCOc1cc(C(=O)Nc2ccc(-c3ccc4c(c3)C(=O)c3cc(-c5ccc(NC(=O)c6cc(OCCCCCCCCCCCC)c(OCCCCCCCCCCCC)c(OCCCCCCCCCCCC)c6)cc5)ccc3-4)cc2)cc(OCCCCCCCCCCCC)c1OCCCCCCCCCCCC`: for the setting “in C1CCOC1”, the absorption maximum is on record as 447 nm.

On to `Nc1cc2nc3cc(Cl)c(Cl)cc3nc2cc1N`, for which, for the setting “in CCO”, the absorption maximum is 442 nm.

`Cc1cc(C)c(C2=C3C=C(/C=C/C(=O)OC(C)(C)C)C=[N+]3[B-](F)(F)n3cc(/C=C/C(=O)OC(C)(C)C)cc32)c(C)c1` came in with an absorption maximum (in ClCCl) of 580 nm.

Where the note is “in ClC(Cl)Cl”, `CCCCCCCCCCOc1cc(OCCCCCCCCCC)cc(C2=C3C(C)=CC(/C=C/c4ccc(OC)cc4)=[N+]3[B-](F)(F)n3c(/C=C/c4ccc(OC)cc4)cc(C=Cc4ccc(OC)cc4)c32)c1` displayed an absorption maximum of 665 nm.

`COc1ccc2c(c1)c1cc(OC)ccc1c1c2c2c(C(=O)NC(C)(C)C)ccc(C(=O)NC(C)(C)C)c2c2c3ccc(OC)cc3c3cc(OC)ccc3c21` came in with an absorption maximum (in ClCCl) of 414 nm.

Under “in Cc1ccccc1”, `O=C(c1ccc(-n2c3ccc(-c4ccccc4)cc3c3cc(-c4ccccc4)ccc32)cc1)c1ccc(-n2c3ccc(-c4ccccc4)cc3c3cc(-c4ccccc4)ccc32)cc1` had an absorption maximum of 370 nm.

In turn, `[NH3+]C(Cc1ccc(O)cc1)C(=O)[O-]` (centres undefined) came in with an absorption maximum (in O) of 274 nm.

Take `N#Cc1ccc(/C=C2\N=C(c3ccccc3)NC2=O)cc1`: the absorption maximum (in C1COCCO1) worked out at 393 nm.

In turn, `CC1=c2cc3c(cc2=[N+]2C1=Cc1c4ccccc4c(C)n1[B-]2(F)F)C1=Cc2c4ccccc4c(C)n2[B-](F)(F)[N+]1=C3C` displayed an absorption maximum (in ClC(Cl)Cl) of 848 nm.

As for `C(=C\c1ccc(-c2ccncc2)cc1)/c1ccc(-c2ccncc2)cc1`, the absorption maximum (in ClCCl) came to 345 nm.

Take `O=C1c2ccccc2-c2ccccc21`: the absorption maximum reads like this: (in C1CCCCC1) 382 nm; (in CC#N) 377 nm; (in CCO) 379 nm; (in c1ccccc1) 380 nm.

Turning to `N#Cc1cc2ccc(O)cc2oc1=O`, the absorption maximum (in C1CCCCC1) came out at 361 nm; the absorption maximum (in C1CCOC1) is 355 nm; the absorption maximum (in CC#N) is on record as 352 nm; the absorption maximum (in CCOC(C)=O) is 356 nm; the absorption maximum (in CS(C)=O) worked out at 351 nm; the absorption maximum (in ClC(Cl)Cl) came out at 359 nm. In addition, under “in O”, the absorption maximum is 355 nm.

For the setting “in ClC(Cl)Cl”, `c1ccc2c(c1)Oc1ccccc1C21c2cc(-c3ccc4ccc5cccc6ccc3c4c56)ccc2-c2ccc(-c3ccc4ccc5cccc6ccc3c4c56)cc21` returned an absorption maximum of 364 nm.

Regarding `Cc1cccc(C)c1N1C(c2ccccc2)=Cc2ccc3ccccc3[n+]2[B-]1(F)F`, the absorption maximum (in ClCCl) turned out to be 447 nm.

`CC(C)(C)c1ccc2c(c1)c1cc(C(C)(C)C)ccc1n2-c1cc(-n2c3ccc(C(C)(C)C)cc3c3cc(C(C)(C)C)ccc32)c(-n2c3ccc(C(C)(C)C)cc3c3cc(C(C)(C)C)ccc32)c(C#N)c1-n1c2ccc(C(C)(C)C)cc2c2cc(C(C)(C)C)ccc21`: the absorption maximum (in Cc1ccccc1) was 422.84 nm.

As for `COc1ccc(/C=C(\C#N)c2nc(-c3ccc(Cl)cc3)cs2)cc1`, the absorption maximum (in CC#N) is recorded as 373 nm.

In turn, `Cc1cc(C)c(C2=C3C=C(/C=C/C(=O)OCc4ccccc4)C=[N+]3[B-](F)(F)n3cccc32)c(C)c1` showed an absorption maximum (in ClCCl) of 537 nm.

Take `COc1cc(OC)cc(C(=O)OCc2c(C)c(=O)n3c(=O)c(C)c(C)n23)c1`: under “in CCO”, the absorption maximum was found to be 378 nm.

Compound `COc1ccc(N(c2ccc(/C=C(\C)c3ccccc3)cc2)c2ccc(OC)cc2)cc1` returned an absorption maximum (in Cc1ccccc1) of 347 nm.

In the case of `CCC(CC)COC1=CC2=C3c4cc(OCC(CC)CC)c(-c5ccccc5)n4[B-](F)(F)[n+]4nnn(c43)[B-](F)(F)[N+]2=C1c1ccccc1`, the absorption maximum reads like this: (in C1CCOC1) 691 nm; (in CC#N) 687 nm; (in ClCCl) 700 nm.

For `COC(=O)c1cc(=O)n(C)c2cc(-c3ccc(Oc4ccccc4)cc3)sc12`, the absorption maximum (in CC#N) was found to be 396 nm and the absorption maximum (in ClCCl) is 398 nm.

In turn, `N#Cc1c(N2CCCCC2)cc(-c2cccc3ccccc23)c2c1C(=O)c1ccccc1-2` registered an absorption maximum (in C1CCOC1) of 344 nm.

Where the note is “in CC#N”, `Fc1ccc(/C=C/c2nc3c4ccccc4c4ccccc4c3o2)cc1` displayed an absorption maximum of 363 nm.

For the compound `COc1ccc(-c2nc(-c3ccc(C#N)cc3)[nH]c2-c2ccc(OC)cc2)cc1`, the absorption maximum (in CO) turned out to be 354 nm.

Consider `c1ccc2c(c1)Nc1ccccc1B2c1c2ccccc2cc2ccccc12`, for which the absorption maximum (in ClCCl) came out at 394 nm and the absorption maximum (in c1ccccc1) is given as 394 nm.

Take `CN(C)c1ccc(/C=C/c2ccc(-c3nc(C#N)c(C#N)n3C)cc2)cc1`: the absorption maximum is, setting by setting: (in C1CCCCC1) 376 nm; (in CC#N) 380 nm; (in CO) 378 nm; (in ClC(Cl)Cl) 383 nm.

Turning to `Cc1ccccc1-c1c2ccc(=[N+]3CCCCC3)cc-2oc2cc(N3CCCCC3)ccc12`, the absorption maximum by setting is: (in CCO) 564 nm; (in ClCCl) 565 nm.

In turn, `c1ccc(-n2c3ccccc3c3cc(-c4cccc(-n5c6ccccc6c6c7sc8ccccc8c7ccc65)c4)ccc32)cc1` came in with an absorption maximum (in ClCCl) of 355 nm.

Compound `CC(C)[Si](C#Cc1c2nsnc2c(C#C[Si](C(C)C)(C(C)C)C(C)C)c2nc3c(nc12)Cc1ccccc1-3)(C(C)C)C(C)C` gave an absorption maximum (in CCCCCC) of 540 nm.

For `C[Si]1(C)C2=C(c3ccc(N(c4ccccc4)c4ccccc4)cc31)P(=O)(c1ccccc1)c1ccccc12` (centres undefined), the absorption maximum by setting is: (in CC#N) 440 nm; (in CO) 452 nm; (in Cc1ccccc1) 446 nm.

Turning to `COCCOCCOCCNc1cc2c3c(c(NCCOCCOCCOC)cc4c3c1C(=O)N(CCOCCOCCOC)C4=O)C(=O)N(CCOCCOCCOC)C2=O`, the absorption maximum (in CO) turned out to be 605 nm, the absorption maximum (in ClC(Cl)Cl) was found to be 610 nm and the absorption maximum (in O) is on record as 623 nm.

`CCC1=C(C)C2=Cc3c4ccccc4c4n3[B-](c3ccc5cc6ccccc6cc5c3)(Oc3ccccc3-4)[N+]2=C1C` (centres undefined) registered an absorption maximum (in CC#N) of 621 nm, an absorption maximum (in CCCCCC) of 626 nm, an absorption maximum (in Cc1ccccc1) of 630 nm and an absorption maximum (in ClCCl) of 627 nm.

With `Nc1ccc(N2C(=O)c3ccc4c5ccc6c7c(ccc(c8ccc(c3c48)C2=O)c75)C(=O)NC6=O)cc1`, the absorption maximum (in CN(C)C=O) is 524 nm.

The compound `CCn1c(-c2ccc(-c3ccc(-c4ccc(-c5n(CC)c6ccccc6[n+]5CC)cc4)cc3)cc2)[n+](CC)c2ccccc21` returned an absorption maximum (in O) of 305 nm.

In the case of `CN(C)c1ccc(C#CC2=C3CCc4ccccc4C3=[O+][B-](F)(F)O2)cc1`, the absorption maximum (in ClCCl) is recorded as 514 nm.

Compound `COc1cc2c3cc(OC)c(OC)cc3c3cc4c(C)cc(=O)oc4cc3c2cc1OC` returned an absorption maximum (in C1CCOC1) of 366 nm; an absorption maximum (in CO) of 364 nm; an absorption maximum (in CS(C)=O) of 370 nm; an absorption maximum (in Cc1ccccc1) of 366 nm; an absorption maximum (in ClC(Cl)Cl) of 368 nm.

Compound `Clc1ccccc1-c1nc2sc3ccccc3c2s1` gave an absorption maximum (in CS(C)=O) of 347 nm.

For the compound `CCCCN(CCCC)c1ccc2c#cc3cc4c#cc5ccc(N(CCCC)CCCC)cc5c#cc#cc5cc(C(F)(F)F)ccc5c#cc4cc3c#cc3ccc(C(F)(F)F)cc3c#cc#cc2c1`, for the setting “in ClCCl”, the absorption maximum is listed as 454 nm.

For the compound `N#Cc1nn(-c2ccc(Cl)cc2)nc1N1CCCC1`, the absorption maximum (in CC#N) is given as 346 nm.
